Tested on: Endogenous Huntingtin Protein
Assay: Endogenous Huntingtin Protein Assay (ELISA-based Meso Scale Discovery electrochemiluminescence)
Format: cell-based
Conditions: MSD electrochemiluminescence, Table 1
Experimental: Compounds of Formula (I) or Formula (II) were tested using the Meso Scale Discovery (MSD) Assay provided in International Application No. PCT/US2016/066042, filed on Dec. 11, 2016 and claiming priority to U.S. Provisional Application 62/265,652 filed on Dec. 10, 2015, the entire contents of which are incorporated herein by reference.
The Endogenous Huntingtin Protein assay used in Example 1 was developed using the ELISA-based MSD electrochemiluminescence assay platform.
Endogenous Huntingtin Protein Assay
Meso Scale Discovery (MSD) 96-well or 384-well plates were coated overnight at 4° C. with MW1 (expanded polyglutamine) or MAB2166 monoclonal antibody (for capture) at a concentration of 1 μg/mL in PBS (30 μL per well). Plates were then washed three times with 300 μL wash buffer (0.05% Tween-20 in PBS) and blocked (100 μL blocking buffer; 5% BSA in PBS) for 4-5 hours at room temperature with rotational shaking and then washed three times with wash buffer.
Samples (25 μL) were transferred to the antibody-coated MSD plate and incubated overnight at 4° C. After removal of the lysates, the plate was washed three times with wash buffer, and 25 μL of #5656S (Cell signaling; rabbit monoclonal) secondary antibody (diluted to 0.25 μg/mL in 0.05% Tween-20 in blocking buffer) was added to each well and incubated with shaking for 1 Hour at room temperature. Following incubation with the secondary antibody, the wells were rinsed with wash buffer after which 25 μL of goat anti-rabbit SULFO TAG secondary detection antibody (required aspect of the MSD system) (diluted to 0.25 μg/mL in 0.05% Tween-20 in blocking buffer) was added to each well and incubated with shaking for 1 hour at room temperature. After rinsing three times with wash buffer, 150 μL of read buffer T with surfactant (MSD) were added to each empty well, and the plate was imaged on a SI 6000 imager (MSD) according to manufacturers' instructions provided for 96- or 384-well plates.

| Compound | IC50 [nM] |
| --- | --- |
| CN(c1ncc(-c2ccc(-c3c[nH]nc3F)cc2O)nn1)C1CC(C)(C)NC(C)(C)C1 [Cpd 12, 5-(3-fluoro-1H-pyrazol-4-yl)-2-{3-[methyl(2,2,6,6-tetramethylpiperidin-4-yl)amino]-1,2,4-triazin-6-yl}phenol] | ≤ 100 |
| CC1(C)CC(Nc2ncc(-c3ccc(-c4cn[nH]c4)cc3O)nn2)CC(C)(C)N1 [Cpd 13, 5-(1H-pyrazol-4-yl)-2-{3-[(2,2,6,6-tetramethylpiperidin-4-yl)amino]-1,2,4-triazin-6-yl}phenol] | ≤ 100 |
| [2H]C([2H])([2H])n1cc(-c2ccc(-c3cnc(N(C)C4CC(C)(C)NC(C)(C)C4)nn3)c(O)c2)cn1 [Cpd 14, 5-[1-(^2H3)methyl-1H-pyrazol-4-yl]-2-{3-[methyl(2,2,6,6-tetramethylpiperidin-4-yl)amino]-1,2,4-triazin-6-yl}phenol] | ≤ 100 |
| CN(c1ncc(-c2ccc(-c3cn[nH]c3)cc2O)nn1)C1CC(C)(C)NC(C)(C)C1 [Cpd 15, 2-{3-[methyl(2,2,6,6-tetramethylpiperidin-4-yl)amino]-1,2,4-triazin-6-yl}-5-(1H-pyrazol-4-yl)phenol] | ≤ 100 |
| CN(c1ncc(-c2ccc(-c3cnn(C)c3)cc2O)nn1)C1CC(C)(C)NC(C)(C)C1 [Cpd 16] | ≤ 100 |
| CN(c1ncc(-c2ccc(-n3cccn3)cc2O)nn1)C1CC(C)(C)NC(C)(C)C1 [Cpd 17, 2-{3-[methyl(2,2,6,6-tetramethylpiperidin-4-yl)amino]-1,2,4-triazin-6-yl}-5-(1H-pyrazol-1-yl)phenol] | 100 to 500 |
| CN(c1ncc(-c2ccc(-c3cn(C)nc3F)cc2O)nn1)C1CC(C)(C)NC(C)(C)C1 [Cpd 18, 5-(3-fluoro-1-methyl-1H-pyrazol-4-yl)-2-{3-[methyl(2,2,6,6-tetramethylpiperidin-4-yl)amino]-1,2,4-triazin-6-yl}phenol] | ≤ 100 |
| CN(c1ncc(-c2ccc(-c3cn[nH]c3)cc2O)nn1)C1CCNCC1 [Cpd 19, 2-{3-[methyl(piperidin-4-yl)amino]-1,2,4-triazin-6-yl}-5-(1H-pyrazol-4-yl)phenol] | ≤ 100 |
| CN(c1ncc(-c2ccc(-c3cn[nH]c3)cc2O)nn1)C1CCCNC1 (centres unmarked) [Cpd 20, 2-{3-[methyl(piperidin-3-yl)amino]-1,2,4-triazin-6-yl}-5-(1H-pyrazol-4-yl)phenol] | > 500 |
| CN(c1ncc(-c2ccc(-c3cn[nH]c3)cc2O)nn1)C1C[C@H]2CC[C@@H](C1)N2 (stereo partly drawn) [Cpd 21, 2-(3-{[(1R,3S,5S)-8-azabicyclo[3.2.1]octan-3-yl](methyl)amino}-1,2,4-triazin-6-yl)-5-(1H-pyrazol-4-yl)phenol] | ≤ 100 |
| CN(c1ncc(-c2ccc(-c3cn[nH]c3)cc2O)nn1)C1C[C@H]2CCC[C@@H](C1)N2 (stereo partly drawn) [Cpd 22, 2-(3-{[(1R,3S,5S)-9-azabicyclo[3.3.1]nonan-3-yl](methyl)amino}-1,2,4-triazin-6-yl)-5-(1H-pyrazol-4-yl)phenol] | ≤ 100 |
| CN(c1ncc(-c2ccc(-c3cnn(C)n3)cc2O)nn1)C1CC(C)(C)NC(C)(C)C1 [Cpd 23, 2-{3-[methyl(2,2,6,6-tetramethylpiperidin-4-yl)amino]-1,2,4-triazin-6-yl}-5-(2-methyl-2H-1,2,3-triazol-4-yl)phenol] | ≤ 100 |
| CN(c1cnc(-c2ccc(-c3cn[nH]c3)cc2O)nn1)C1CC(C)(C)NC(C)(C)C1 [Cpd 24, 2-{6-[methyl(2,2,6,6-tetramethylpiperidin-4-yl)amino]-1,2,4-triazin-3-yl}-5-(1H-pyrazol-4-yl)phenol] | 100 to 500 |
| CN(c1ncc(-c2ccc(-c3ncnc(O)n3)cc2O)nn1)C1CC(C)(C)NC(C)(C)C1 [Cpd 33, 4-(3-hydroxy-4-{3-[methyl(2,2,6,6-tetramethylpiperidin-4-yl)amino]-1,2,4-triazin-6-yl}phenyl)-1,3,5-triazin-2-ol] | 1000 to 3000 |
| CN(c1ncc(-c2ccc(-n3cnc(F)c3)cc2O)nn1)C1CC(C)(C)NC(C)(C)C1 [Cpd 50, 5-(4-fluoro-1H-imidazol-1-yl)-2-{3-[methyl(2,2,6,6-tetramethylpiperidin-4-yl)amino]-1,2,4-triazin-6-yl}phenol] | ≤ 100 |
| Cc1ncn(-c2ccc(-c3cnc(N(C)C4CC(C)(C)NC(C)(C)C4)nn3)c(O)c2)n1 [Cpd 51, 2-{3-[methyl(2,2,6,6-tetramethylpiperidin-4-yl)amino]-1,2,4-triazin-6-yl}-5-(3-methyl-1H-1,2,4-triazol-1-yl)phenol] | > 500 |

| Compound | IC50 [nM] |
| --- | --- |
| CN1CCC(Nc2ncc(-c3ccc(-c4cn[nH]c4)cc3O)nn2)CC1 [Cpd 52, 2-{3-[(1-methylpiperidin-4-yl)amino]-1,2,4-triazin-6-yl}-5-(1H-pyrazol-4-yl)phenol] | 100 to 500 |
| CN(c1ncc(-c2ccc(-c3cccs3)cc2O)nn1)C1CC(C)(C)NC(C)(C)C1 [Cpd 53, 2-{3-[methyl(2,2,6,6-tetramethylpiperidin-4-yl)amino]-1,2,4-triazin-6-yl}-5-(thiophen-2-yl)phenol] | 100 to 500 |
| Cc1csc(-c2ccc(-c3cnc(N(C)C4CC(C)(C)NC(C)(C)C4)nn3)c(O)c2)c1 [Cpd 54, 2-{3-[methyl(2,2,6,6-tetramethylpiperidin-4-yl)amino]-1,2,4-triazin-6-yl}-5-(4-methylthiophen-2-yl)phenol] | > 500 |
| COc1cnn(-c2ccc(-c3cnc(N(C)C4CC(C)(C)NC(C)(C)C4)nn3)c(O)c2)c1 [Cpd 55, 5-(4-methoxy-1H-pyrazol-1-yl)-2-{3-[methyl(2,2,6,6-tetramethylpiperidin-4-yl)amino]-1,2,4-triazin-6-yl}phenol] | ≤ 100 |
| CN(c1ncc(-c2ccc(-c3ccn(C)c(=O)c3)cc2O)nn1)C1CC(C)(C)NC(C)(C)C1 [Cpd 56] | ≤ 100 |
| CN(c1ncc(-c2ccc(-c3c[nH]nc3Cl)cc2O)nn1)C1CC(C)(C)NC(C)(C)C1 [Cpd 57, 5-(3-chloro-1H-pyrazol-4-yl)-2-{3-[methyl(2,2,6,6-tetramethylpiperidin-4-yl)amino]-1,2,4-triazin-6-yl}phenol] | ≤ 100 |
| CN(c1ncc(-c2ccc(-c3nccs3)cc2O)nn1)C1CC(C)(C)NC(C)(C)C1 [Cpd 58, 2-{3-[methyl(2,2,6,6-tetramethylpiperidin-4-yl)amino]-1,2,4-triazin-6-yl}-5-(1,3-thiazol-2-yl)phenol] | ≤ 100 |
| CN(c1ncc(-c2ccc(-n3cnc(Cl)c3)cc2O)nn1)C1CC(C)(C)NC(C)(C)C1 [Cpd 59, 5-(4-chloro-1H-imidazol-1-yl)-2-{3-[methyl(2,2,6,6-tetramethylpiperidin-4-yl)amino]-1,2,4-triazin-6-yl}phenol] | ≤ 100 |
| CN(c1ncc(-c2ccc(-c3ccnnc3)cc2O)nn1)C1CC(C)(C)NC(C)(C)C1 [Cpd 60, 2-{3-[methyl(2,2,6,6-tetramethylpiperidin-4-yl)amino]-1,2,4-triazin-6-yl}-5-(pyridazin-4-yl)phenol] | ≤ 100 |
| Cc1cc(-c2ccc(-c3cnc(N(C)C4CC(C)(C)NC(C)(C)C4)nn3)c(O)c2)cnn1 [Cpd 61, 5-(6-methylpyridazin-4-yl)-2-{3-[methyl(2,2,6,6-tetramethylpiperidin-4-yl)amino]-1,2,4-triazin-6-yl}phenol] | ≤ 100 |
| CN(c1ncc(-c2ccc(-c3ncn(C)n3)cc2O)nn1)C1CC(C)(C)NC(C)(C)C1 [Cpd 62, 2-{3-[methyl(2,2,6,6-tetramethylpiperidin-4-yl)amino]-1,2,4-triazin-6-yl}-5-(1-methyl-1H-1,2,4-triazol-3-yl)phenol] | 100 to 500 |
| CN(c1ncc(-c2ccc(-n3nccn3)cc2O)nn1)C1CC(C)(C)NC(C)(C)C1 [Cpd 63, 2-{3-[methyl(2,2,6,6-tetramethylpiperidin-4-yl)amino]-1,2,4-triazin-6-yl}-5-(2H-1,2,3-triazol-2-yl)phenol] | ≤ 100 |
| Cc1ncc(-c2ccc(-c3cnc(N(C)C4CC(C)(C)NC(C)(C)C4)nn3)c(O)c2)s1 [Cpd 64, 2-{3-[methyl(2,2,6,6-tetramethylpiperidin-4-yl)amino]-1,2,4-triazin-6-yl}-5-(2-methyl-1,3-thiazol-5-yl)phenol] | ≤ 100 |
| CN(c1ncc(-c2ccc(-c3ncns3)cc2O)nn1)C1CC(C)(C)NC(C)(C)C1 [Cpd 65, 2-{3-[methyl(2,2,6,6-tetramethylpiperidin-4-yl)amino]-1,2,4-triazin-6-yl}-5-(1,2,4-thiadiazol-5-yl)phenol] | ≤ 100 |
| Cc1nsc(-c2ccc(-c3cnc(N(C)C4CC(C)(C)NC(C)(C)C4)nn3)c(O)c2)n1 [Cpd 66, 2-{3-[methyl(2,2,6,6-tetramethylpiperidin-4-yl)amino]-1,2,4-triazin-6-yl}-5-(3-methyl-1,2,4-thiadiazol-5-yl)phenol] | ≤ 100 |
| CN(c1ncc(-c2ccc(-c3cn[nH]c3)cc2O)nn1)C1CC(C)(C)NC(C)(C)C1F (centres unmarked) [Cpd 67, 2-{3-[(3-fluoro-2,2,6,6-tetramethylpiperidin-4-yl)(methyl)amino]-1,2,4-triazin-6-yl}-5-(1H-pyrazol-4-yl)phenol] | 100 to 500 |
